Laboratory results from patent publication US20250074871A1, “PHENETHYLAMINES AND METHODS OF PREPARATION THEREOF” (priority 2022, published 2025).
Read-outs that look alike come from different tables or passages of the source.

What was measured:
Type in all cases: cell-based
[1] = biological target: T1, 5-HT2A receptor (Homo sapiens, UniProt P28223); assay: 5-HT2A Gq dissociation BRET functional assay; details: Table 2; for EC50: at least three replicate trials; for 5-HT2A BRET Eff %: normalized to % 5-HT stimulation
T1 construct: expressed in transfected cells; host or cells: HEK293T
T1 sequence (P28223 whole entry): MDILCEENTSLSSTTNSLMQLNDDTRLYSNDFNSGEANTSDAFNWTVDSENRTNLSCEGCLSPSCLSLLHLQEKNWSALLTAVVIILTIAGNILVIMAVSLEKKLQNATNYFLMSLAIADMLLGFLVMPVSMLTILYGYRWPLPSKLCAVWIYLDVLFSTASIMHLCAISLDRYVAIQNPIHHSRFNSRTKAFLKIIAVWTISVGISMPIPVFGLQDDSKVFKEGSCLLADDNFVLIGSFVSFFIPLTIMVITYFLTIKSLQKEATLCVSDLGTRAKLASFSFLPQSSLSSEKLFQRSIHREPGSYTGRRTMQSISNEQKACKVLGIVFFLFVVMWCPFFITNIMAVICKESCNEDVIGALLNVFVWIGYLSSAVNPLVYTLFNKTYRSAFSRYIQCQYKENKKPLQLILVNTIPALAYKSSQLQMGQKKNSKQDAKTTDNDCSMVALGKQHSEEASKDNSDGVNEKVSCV

[2] = biological target: T2, 5-HT2C receptor (Homo sapiens, UniProt P28335); assay: cell-based; details: Table 2; for EC50: at least three replicate trials, read-out: 5-HT2C BRET EC50; for 5-HT2C BRET Eff %: normalized to % 5-HT stimulation
T2 construct: expressed in transfected cells; host or cells: HEK293T
T2 sequence (P28335 33-458): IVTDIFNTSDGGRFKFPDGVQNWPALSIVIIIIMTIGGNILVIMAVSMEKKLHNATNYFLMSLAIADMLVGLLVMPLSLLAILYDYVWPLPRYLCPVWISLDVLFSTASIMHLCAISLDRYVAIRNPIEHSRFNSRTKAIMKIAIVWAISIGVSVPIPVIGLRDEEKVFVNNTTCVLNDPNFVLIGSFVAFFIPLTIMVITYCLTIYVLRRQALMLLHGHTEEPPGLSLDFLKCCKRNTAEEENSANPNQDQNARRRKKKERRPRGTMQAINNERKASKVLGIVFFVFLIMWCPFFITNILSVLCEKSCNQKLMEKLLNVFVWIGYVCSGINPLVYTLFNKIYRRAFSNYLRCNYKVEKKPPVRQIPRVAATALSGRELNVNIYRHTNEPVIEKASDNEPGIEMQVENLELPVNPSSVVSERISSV

[3] = biological target: T3, 5-HT2B receptor (Homo sapiens, UniProt P41595); assay: 5-HT2B Gq dissociation BRET functional assay; details: Table 2; for EC50: at least three replicate trials; for 5-HT2B BRET Eff %: normalized to % 5-HT stimulation
T3 construct: expressed in transfected cells; host or cells: HEK293T
T3 sequence (P41595 whole entry): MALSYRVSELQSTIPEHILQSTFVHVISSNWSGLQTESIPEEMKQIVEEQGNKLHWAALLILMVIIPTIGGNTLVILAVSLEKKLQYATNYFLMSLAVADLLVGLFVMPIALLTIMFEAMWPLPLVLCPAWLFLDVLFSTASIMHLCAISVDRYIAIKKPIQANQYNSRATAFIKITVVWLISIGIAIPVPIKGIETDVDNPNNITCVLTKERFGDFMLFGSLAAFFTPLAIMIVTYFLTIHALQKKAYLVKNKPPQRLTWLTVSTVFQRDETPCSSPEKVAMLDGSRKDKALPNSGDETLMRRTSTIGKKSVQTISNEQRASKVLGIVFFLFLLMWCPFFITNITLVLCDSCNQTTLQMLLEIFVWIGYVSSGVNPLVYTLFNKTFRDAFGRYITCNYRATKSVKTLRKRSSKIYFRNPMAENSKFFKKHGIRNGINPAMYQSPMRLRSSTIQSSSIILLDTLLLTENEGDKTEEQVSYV

Structure (SMILES) | EC50 ([1]; read-out: 5-HT2A BRET EC50) | 5-HT2A BRET Eff % [1] | EC50 [2] | 5-HT2C BRET Eff % [2] | 5-HT2B BRET EC50 (nM) / Eff % [3] | EC50 ([1]; 5-HT2A BRET EC50 (nM)) | EC50 ([3]; 5-HT2B BRET EC50 (nM)) | 5-HT2B BRET Eff % [3] | EC50 ([3]; read-out: 5-HT2B BRET EC50) | 5-HT2C BRET EC50 (nM) / Eff % (merged cell, word) [2]
N#Cc1ccc(CCNCc2cccc3cc[nH]c23)c(O)c1 [Cpd #71] | 1140 nM | 59% | 10700 nM | 92% | Inactive | – | – | – | – | –
COc1cc(C#N)ccc1CCNCc1ccc(F)cc1 [Cpd #8] | – | 52% | 8740 nM | 79% | Inactive | 13100 nM | – | – | – | –
COc1cc(C#N)ccc1CCN(C)Cc1ccccc1Cl [Cpd #88] | – | 14% | 310000 nM | 86% | – | 0.01 nM | 4980 nM | 20% | – | –
NCCc1c[nH]c2ccc(O)cc12 [5-hydroxytryptamine (serotonin), 5-hydroxytryptamine, reference compound] | – | 100% | – | – | – | – | – | – | – | –
COc1cc(C#N)ccc1CCNCc1cccc2ncn(C)c12 [Cpd #73] | 73 nM | 4% | 0.04 nM | 7% | Inactive | – | – | – | – | –
COc1cc(-c2ncccn2)ccc1CCNCc1ccccc1Cl [Cpd #104] | 4890 nM | 71% | 5690 nM | 106% | Inactive | – | – | – | – | –
N#Cc1cc(O)c(CCNCc2ccccc2O)cc1F [Cpd #129] | – | 95% | 67 nM | 105% | – | 7.8 nM | 249 nM | 62% | – | –
CSc1ccc(CCNCc2ccccc2SC)c(O)c1 [Cpd #121] | – | 94% | 44.1 nM | 110% | – | 3.6 nM | 175 nM | 89% | – | –
COc1cc(C#N)ccc1CCNCc1cccs1 [Cpd #138] | 187 nM | 75% | 198 nM | 102% | – | – | – | −2% | 0.03 nM | –
COc1cc(C#N)ccc1CCNCc1ccccc1O [Cpd #113] | – | 90% | 30.3 nM | 102% | – | 4.9 nM | 1290 nM | 34% | – | –
COc1cc(C#N)ccc1CCNCc1ccc(F)cc1F [Cpd #59] | – | 58% | 9930 nM | 94% | Inactive | 14100 nM | – | – | – | –
CSc1ccccc1CCCNCCc1ccc(C#N)cc1O [Cpd #135] | 423 nM | 51% | 121 nM | 65% | – | – | – | 15% | 502 nM | –
Oc1cc(C(F)(F)F)ccc1CCNCc1ccccc1O [Cpd #116] | – | 89% | 1.7 nM | 100% | Inactive | 1 nM | – | – | – | –
COc1cc(C#N)ccc1CCNCc1cccc(Cl)c1 [Cpd #13] | – | 69% | 1840 nM | 96% | Inactive | 393 nM | – | – | – | –
Cc1ccc(CCNCc2cccc3c2OCO3)c(O)c1 [Cpd #132] | – | 70% | 770 nM | 84% | Inactive | 49 nM | – | – | – | –
COc1ccc(CNCCc2ccc(C#N)cc2OC)cc1 [Cpd #29] | – | 59% | 924 nM | 75% | Inactive | 3950 nM | – | – | – | –

Structure (SMILES) | EC50 ([1]; read-out: 5-HT2A BRET EC50) | 5-HT2A BRET Eff % [1] | EC50 [2] | 5-HT2C BRET Eff % [2] | 5-HT2B BRET EC50 (nM) / Eff % [3] | EC50 ([1]; 5-HT2A BRET EC50 (nM)) | EC50 ([3]; 5-HT2B BRET EC50 (nM)) | 5-HT2B BRET Eff % [3] | EC50 ([3]; read-out: 5-HT2B BRET EC50) | 5-HT2C BRET EC50 (nM) / Eff % (merged cell, word) [2]
N#Cc1ccc(CCNCc2cccc3ccsc23)c(O)c1 [Cpd #70] | 0.3 nM | 11% | 5400 nM | 160% | Inactive | – | – | – | – | –
N#Cc1ccc(CCNCc2ccsc2Cl)c(O)c1 [Cpd #139] | 1260 nM | 80% | 4670 nM | 91% | Inactive | – | – | – | – | –
CCCCCc1ccc(CCNCc2ccccc2O)c(OC)c1 [Cpd #125] | – | 96% | 55.8 nM | 105% | Inactive | 13.5 nM | – | – | – | –
N#Cc1ccc(CCNCc2ccccc2O)c(C(F)(F)F)c1 [Cpd #137] | – | 89% | 56.5 nM | 83% | Inactive | 312 nM | – | – | – | –
CSc1ccccc1CNCCCc1ccc(C#N)cc1O [Cpd #136] | 1380 nM | 55% | 412 nM | 43% | – | – | – | 49% | 7330 nM | –
N#Cc1ccc(CCNCc2ccccc2O)cc1 [Cpd #114] | 154 nM | 88% | 322 nM | 92% | – | – | – | 11% | 6490 nM | –
N#Cc1ccc(CCNCc2ccccc2OC(F)(F)F)c(O)c1 [Cpd #124] | 159 nM | 83% | 21.1 nM | 98% | – | – | – | 97% | 453 nM | –
COc1cc(C#N)ccc1CCNC1COc2ccccc21 (stereo not shown) [Cpd #52] | 1040 nM | 69% | 12100 nM | 125% | Inactive | – | – | – | – | –
CSc1ccccc1CNC[C@@H]1CCc2cc(C#N)cc(O)c21 [Cpd #142] | 1960 nM | 68% | 17600 nM | 108% | – | – | – | −20% | 18.5 nM | –
COc1cc(C#N)ccc1CCNCc1ccc(Cl)cc1 [Cpd #14] | – | 40% | 13300 nM | 74% | Inactive | 14300 nM | – | – | – | –
CSc1ccccc1CNCCc1ccc(O)cc1O [Cpd #120] | 518 nM | 90% | – | – | Inactive | – | – | – | – | Inactive
COc1cc(C#N)ccc1CCNCC1CC1 [Cpd #133] | 10700 nM | 64% | 34400 nM | 71% | – | – | – | −6% | 0.07 nM | –
COc1cc(-c2cncnc2)ccc1CCNCc1ccccc1Cl [Cpd #105] | 1610 nM | 86% | 1490 nM | 107% | Inactive | – | – | – | – | –
COc1cc(Oc2ccccc2)ccc1CCNCc1ccccc1O [Cpd #127] | 27.1 nM | 100% | 148 nM | 104% | – | – | – | −20% | 3.8 nM | –
COc1cc(C#N)c(F)cc1CCNCc1ccccc1O [Cpd #4] | – | 99% | 37.5 nM | 115% | – | 2.4 nM | 4090 nM | 73% | – | –
COc1cc(-c2ncco2)ccc1CCNCc1ccccc1Cl [Cpd #102] | 2090 nM | 61% | 1640 nM | 101% | – | – | – | 143% | 5370 nM | –
